Data: patent US20250032635A1, “LIGAND-POLAR DRUG CONJUGATES” (priority 2023, published 2025)

Tests used:
SK-BR-3 = test: In vitro cytotoxicity assay, SK-BR-3; assay type: cell-based; details: SK-BR-3, HER2+++
Source text: (§1) Breast cancer cell line MDA-MB-231 and SK-BR-3, gastric cancer cell line NCI-N87, ovarian cancer cell line SK-OV-3, and pancreatic cancer cell line Capan-1 were purchased from ATCC. Breast cancer cell line JIMT-1 was purchased from Deutsche Sammlung von Mikroorganismen und Zellkulturen (DSMZ, Germany). Gastric cancer cell line MKN45 was purchased from RIKEN. Human umbilical vein endothelial cell line (HUVAC) was purchased from BCRC (Bioresource Collection and Research Center, Hsinchu City, Taiwan).
(§2) Human MDR1 overexpressed NCI-N87 (NCI-N87-hMDR1) cell line was produced by lentiviral vector-mediated gene transduction. Briefly, the lentiviral transfer vector contains both hEF1α promotor-driven hMDR1 coding sequence (CDS) and hPGK promoter-driven EGFP-IRES-Puro bicistronic cassette. The lentivirus was packaged using second-generation lentiviral system in 293T cell line. After transfection, stable NCI-N87-hMDR1 was selected and maintained in puromycin (0.55 μg/mL) containing RPMI-1640 medium. JIMT-1 and MDA-MB-231 were maintained in DMEM supplemented with 10% heat-inactivated fetal bovine serum (FBS). […]
(§3) In vitro cytotoxicity assays were performed as previously described (Boyd and Paull, 1995; Phillips et al., 2008). […] IC50, the half maximal inhibitory concentration, was calculated from dose-response curves which was generated by four-parameter curve fitting.

JIMT-1 = test: In vitro cytotoxicity assay, JIMT-1; assay type: cell-based; details: JIMT-1, HER2++
Source text: as §1, §2, §3

JIMT-1 xenograft = JIMT-1 xenograft tumor model, cytotoxic APDCs; assay type: in vivo, mice; details: single intravenous injection 10 mg/kg at day zero
Procedure: Xenograft Tumor Model Experiments for Cytotoxic APDCs
Experiments of xenograft tumor model with cytotoxic APDCs were performed as previously described (Jumbe et al., 2010).

NCI-N87 = test: In vitro cytotoxicity assay, NCI-N87; assay type: cell-based
Source text: as §1
(§4) Human MDR1 overexpressed NCI-N87 (NCI-N87-hMDR1) cell line was produced by lentiviral vector-mediated gene transduction. Briefly, the lentiviral transfer vector contains both hEF1α promotor-driven hMDR1 coding sequence (CDS) and hPGK promoter-driven EGFP-IRES-Puro bicistronic cassette. The lentivirus was packaged using second-generation lentiviral system in 293T cell line. After transfection, stable NCI-N87-hMDR1 was selected and maintained in puromycin (0.55 μg/mL) containing RPMI-1640 medium. JIMT-1 and MDA-MB-231 were maintained in DMEM supplemented with 10% heat-inactivated fetal bovine serum (FBS). NCI-N87, NCI-N87-hMDR1, SK—OV-3, and MKN45 were maintained in RPMI-1640 supplemented with 10% heat-inactivated FBS. SK-BR-3 was maintained in McCoy's 5A supplemented with 10% heat-inactivated FBS. Capan-1 was maintained in IMDM supplemented with 20% heat-inactivated FBS. HUVAC was maintained in M199 supplemented with 25 U/mL heparin, 30 μg/mL ECGS and 10% heat-inactivated FBS. All cell lines were cultured at 37° C. under 5% CO2 atmosphere.
(§5) In Vitro Cytotoxicity Assays of APDCs
as §3

MDA-MB-231 = test: In vitro cytotoxicity assay, MDA-MB-231; assay type: cell-based; details: MDA-MB-231, HER2+
Source text: as §1, §2, §3

Capan-1 = test: In vitro cytotoxicity assay, Capan-1; assay type: cell-based; details: Capan-1, HER2++
Source text: as §1, §2, §3

MKN45 = test: In vitro cytotoxicity assay, MKN45; assay type: cell-based; details: MKN45, HER2+
Source text: as §1, §2, §3

NCI-N87-hMDR1 = test: In vitro cytotoxicity assay, MDR1-overexpressing NCI-N87-hMDR1; assay type: cell-based
Procedure: as §4, §5, §3

Trastuzumab emtansine [Kadcyla]
IC50 (SK-BR-3; Table 2): 0.06 nM
GI50 (SK-BR-3; Table 3): 0.052 nM
IC50 (JIMT-1; Table 2): 14 nM
GI50 (JIMT-1; Table 3): 15 nM
tumor volume as a function of time (FIG. 1) (JIMT-1 xenograft): significant tumor growth
IC50 (NCI-N87; NCI-N87, HER2+++, Table 2): 0.15 nM
GI50 (NCI-N87; NCI-N87, HER2+++, Table 3): 0.24 nM
IC50 (NCI-N87; NCI-N87, Table 4 (MDR1 comparison)): 0.38 nM
GI50 (NCI-N87; NCI-N87, Table 5 (MDR1 comparison)): 0.53 nM
IC50 (MDA-MB-231; Table 2): 62 nM
GI50 (MDA-MB-231; Table 3): 156 nM
IC50 (Capan-1; Table 2): 86 nM
GI50 (Capan-1; Table 3): 64 nM
IC50 (MKN45; Table 2): 52 nM
GI50 (MKN45; Table 3): 107 nM
IC50 (NCI-N87-hMDR1; NCI-N87-hMDR1, Table 4): 2.5 nM
GI50 (NCI-N87-hMDR1; NCI-N87-hMDR1, Table 5): 6.7 nM
NCI-N87/NCI-N87-hMDR1 (folds), GI50 (NCI-N87-hMDR1; ratio of GI50 values, Table 5): 13 folds
